pIC50: −log10 of the molar value. Entries after “also recorded” stand apart in the source; their conditions may differ.
Columns and labels:
human TREK-1 = biological target: T1, human TREK-1 (Homo sapiens, UniProt O95069); assay: TREK-1 Thallium (Tl+) flux assay, Method 1; assay type: cell-based; details: TREK-1 Thallium (Tl+) flux assay; values without footnote *12 are Method 1
T1 construct: expressed in transfected cells
T1 sequence (O95069 1-426): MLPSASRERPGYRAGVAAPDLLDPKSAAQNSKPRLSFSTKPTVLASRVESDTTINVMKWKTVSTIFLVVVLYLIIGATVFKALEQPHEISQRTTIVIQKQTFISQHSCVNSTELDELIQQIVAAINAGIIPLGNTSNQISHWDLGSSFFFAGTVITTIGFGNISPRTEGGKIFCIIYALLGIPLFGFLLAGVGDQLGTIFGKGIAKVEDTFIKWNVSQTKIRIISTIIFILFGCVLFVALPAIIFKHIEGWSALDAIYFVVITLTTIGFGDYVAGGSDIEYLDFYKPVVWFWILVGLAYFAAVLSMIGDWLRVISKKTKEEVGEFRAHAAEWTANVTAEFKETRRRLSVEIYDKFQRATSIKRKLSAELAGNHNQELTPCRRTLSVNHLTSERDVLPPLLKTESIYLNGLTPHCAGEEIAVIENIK
Outline: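 CHO-K1 cells stably expressing human TREK-1, loaded with Thallos dye, received compound or 0.3% DMSO vehicle for 10 min before thallium stimulus buffer. ΔRatio is fluorescence at 25 s after thallium addition over mean pre-addition fluorescence; % inhibition calculated from it.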

[1] = tested on: MK-801-induced deficits in the Novel Object Recognition Task; assay: MK-801-induced novel object recognition test; assay type: in vivo, Sprague-Dawley rats; details: rats; 0.1 mg/kg, 0.3 mg/kg and 1 mg/kg; MK-801 0.2 mg/kg
Procedure: The term “MK-801-induced novel object recognition test” herein refers to the experiment to evaluate in vivo efficacy in the schizophrenic cognitive impairment animal model. The detail method is described below. MK-801 is also known as dizocilpine.
MK-801-Induced Novel Object Recognition Test:
Testing was performed using 6-week-old male Sprague Dawley rats. On the testing day, rats were habituated at the empty box for 10 minutes individually. The disclosed compound was administered orally 1 h prior, followed by administration of MK-801 (0.2 mg/kg, s.c.) 30 min prior to the acquisition trial for 10 min. The retention trial for 10 min was performed with the intertrial interval for 80 min. The rat was allowed to explore the same objects in the acquisition trial. In the retention trial, one of the objects used in the acquisition trial was replaced with a novel one. The exploration time of licking, sniffing or touching was measured in the retention trial. Efficacy of each compound at the dose of 0.3, 1, 3 or 10 mg/kg p.o. (n=12-15) was determined by the recognition index (exploration time to the novel object/total exploration time). The scores of MK-801/vehicle and MK-801/compound-treated groups were statistically analyzed by Dunnett's test.
MK-801 induced disruptions of Novel Object Recognition
Drugs: Test compounds were formulated in 10% Tween 80/90% sterile water vehicle. […]

plasma protein [2] = assay: Rat plasma protein binding (PPB); assay type: in vitro ADME
Procedure: (§1) These assays were performed according to known methods as generally described in the following references: Conde-Ceide et al. ACS Med. Chem. Lett. 2015, 6, 716-720; Morris et al. J. Med. Chem. 2014, 57, 10192-10197; and Bubser et al. ACS Chem. Neurosci. 2014, 5, 920-942. Abbreviations which have been used in the descriptions of the following tables are; PPB is plasma protein binding; BHB is brain homogenate binding; and CLint is intrinsic clearance in hepatic microsomes.

plasma protein [3] = assay: Human plasma protein binding (PPB); assay type: in vitro ADME
Procedure: as §1

[4] = Mouse brain homogenate binding (BHB); assay type: in vitro ADME
Procedure: as §1

[5] = Mouse hepatic microsomal intrinsic clearance; assay type: in vitro ADME; details: mouse hepatic microsomes
Procedure: as §1

CYP3A4 = CYP3A4 (Homo sapiens, UniProt P08684); assay: P450 inhibition 3A4; assay type: in vitro ADME
Sequence of CYP3A4 (P08684 whole entry): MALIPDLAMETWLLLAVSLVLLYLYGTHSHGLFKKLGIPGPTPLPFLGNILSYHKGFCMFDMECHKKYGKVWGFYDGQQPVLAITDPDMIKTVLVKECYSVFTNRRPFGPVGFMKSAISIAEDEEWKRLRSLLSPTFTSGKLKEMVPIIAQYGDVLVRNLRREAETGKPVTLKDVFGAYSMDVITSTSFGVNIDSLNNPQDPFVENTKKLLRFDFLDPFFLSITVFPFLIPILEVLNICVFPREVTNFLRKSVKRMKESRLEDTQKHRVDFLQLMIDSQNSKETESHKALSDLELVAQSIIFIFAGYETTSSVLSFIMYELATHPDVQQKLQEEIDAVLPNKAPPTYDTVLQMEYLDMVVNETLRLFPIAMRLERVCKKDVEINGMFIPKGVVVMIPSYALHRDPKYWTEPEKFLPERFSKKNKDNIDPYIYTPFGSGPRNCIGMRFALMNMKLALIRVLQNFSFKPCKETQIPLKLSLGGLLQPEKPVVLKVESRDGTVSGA
Procedure: as §1

CYP2C9 = CYP2C9 (Homo sapiens, UniProt P11712); assay: P450 inhibition 2C9; assay type: in vitro ADME
Sequence of CYP2C9 (P11712 whole entry): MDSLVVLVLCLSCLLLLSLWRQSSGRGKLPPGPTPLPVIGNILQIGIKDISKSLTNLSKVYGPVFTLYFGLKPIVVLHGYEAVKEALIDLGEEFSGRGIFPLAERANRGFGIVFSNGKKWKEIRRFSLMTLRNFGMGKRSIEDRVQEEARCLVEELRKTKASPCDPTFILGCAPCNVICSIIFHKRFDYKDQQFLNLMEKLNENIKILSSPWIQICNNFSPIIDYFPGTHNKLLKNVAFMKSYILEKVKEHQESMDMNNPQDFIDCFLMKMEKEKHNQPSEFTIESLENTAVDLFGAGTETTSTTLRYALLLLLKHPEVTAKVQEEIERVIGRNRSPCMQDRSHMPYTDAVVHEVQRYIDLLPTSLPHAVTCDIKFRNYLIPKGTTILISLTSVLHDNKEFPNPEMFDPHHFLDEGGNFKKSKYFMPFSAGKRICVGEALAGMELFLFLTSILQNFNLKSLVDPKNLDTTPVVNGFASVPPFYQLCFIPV
Procedure: as §1

For `CC(=O)N[C@H]1CC[C@@H](n2ncc(Cl)c2C(=O)Nc2ncc(C#Cc3ccccc3)cc2C)CC1` [Compound 12, 1-(cis-4-acetamidocyclohexyl)-4-chloro-N-(3-methyl-5-(phenylethynyl)pyridin-2-yl)-1H-pyrazole-5-carboxamide], the pIC50 (human TREK-1) was 6.89, the “reversal of MK-801-induced deficits in the Novel Object Recognition Task” value [1] was “dose-dependently reversed; also recorded: caused reversal” and the “Rat PPB (% bound)” value (plasma protein [2]) was 98.4 % bound. The “Human PPB (% bound)” value (plasma protein [3]) was 98.8 % bound, the “Mouse BHB (% bound)” value [4] was 99.7 % bound and the CLint scaled [5] was 103 mL/min/kg. The pIC50 (CYP3A4) was under 4.52 and the pIC50 (CYP2C9) was 5.24.

From patent US20240182445A1 (ONO PHARMACEUTICAL CO., LTD., priority 2019, published 2024)
